{"source": "ChEMBL document CHEMBL5120968", "about": "“Syzysamalactone, an Unusual 11-Carbon δ-Lactone Derivative from the Fresh Ripe Fruits of Syzygium samarangense (Wax Apple)” (J Nat Prod, 2022)"}
{"tested_on": "SH-SY5Y", "assay": "Neuroprotective activity against 6-OHDA induced cell death in human SH-SY5Y cells preincubated with 6-hyrdoxydopamine followed by compound addition and measured after 24 hrs by MTT assay", "type": "functional, cell-based", "units": {"EC50": "nM"}}
{"smiles": "CC[C@H]1CCc2oc(=O)ccc2[C@H]1O", "EC50": 290}
{"smiles": "COc1cc(/C=C/C(=O)CC(=O)/C=C/c2ccc(O)c(OC)c2)ccc1O", "note": "[CURCUMIN]", "EC50": 5290}
{"smiles": "CCCCCc1cccc(=O)o1", "EC50": 1280}
